ChEMBL document CHEMBL3045050, “A ligand-based approach for enhancing the pharmacokinetic profile of highly charged antibacterial agents” (Med Chem Res, 2012)
In brackets after ≈: the same amount, converted by molar mass. Activity calls are given as the source filed them. The rule behind the calls is not given here.

Tests used:
Staphylococcus aureus = experiment: Antibacterial activity against Staphylococcus aureus incubated overnight by disk diffusion method; type: functional, organism-based
Streptococcus pneumoniae [1] = experiment: Antibacterial activity against Streptococcus pneumoniae R6 incubated overnight by disk diffusion method; type: functional
Enterococcus faecalis = experiment: Antibacterial activity against Enterococcus faecalis incubated overnight by disk diffusion method; type: functional, organism-based
Escherichia coli = experiment: Antibacterial activity against Escherichia coli incubated overnight by disk diffusion method; type: functional, organism-based
Enterococcus faecium = experiment: Antibacterial activity against Enterococcus faecium incubated overnight by disk diffusion method; type: functional, organism-based
Streptococcus pneumoniae [2] = experiment: Antibacterial activity against Streptococcus pneumoniae; type: functional
Glutamate racemase = biological target: T1, Glutamate racemase (Streptococcus pneumoniae serotype 2 (strain D39 / NCTC 7466), UniProt Q04IS7); experiment: Inhibition of Streptococcus pneumoniae glutamate racemase
T1 sequence (Q04IS7 whole entry): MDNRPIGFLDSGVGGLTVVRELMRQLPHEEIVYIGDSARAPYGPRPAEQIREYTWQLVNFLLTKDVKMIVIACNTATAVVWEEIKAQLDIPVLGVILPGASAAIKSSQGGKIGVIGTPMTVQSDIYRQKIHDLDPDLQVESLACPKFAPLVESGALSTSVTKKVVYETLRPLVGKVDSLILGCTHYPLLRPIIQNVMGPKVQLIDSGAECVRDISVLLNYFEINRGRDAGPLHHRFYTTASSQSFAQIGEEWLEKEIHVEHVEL

Streptococcus pneumoniae [3] = experiment: Antibacterial activity against Streptococcus pneumoniae R6 at 0.5 to 3 mg/ml incubated overnight by disk diffusion method; type: functional, organism-based
Streptococcus pneumoniae [4] = experiment: Ratio of MIC for Streptococcus pneumoniae to IC50 for Streptococcus pneumoniae glutamate racemase

Compound	MIC (Streptococcus pneumoniae [1]) [µg/mL]	MIC (Streptococcus pneumoniae [2]) [µg/mL]	IC50 (Glutamate racemase) [µM]	Activity (Staphylococcus aureus)	Activity (Enterococcus faecalis)	Activity (Escherichia coli)	Activity (Enterococcus faecium)	Activity (Streptococcus pneumoniae [3])	Ratio (Streptococcus pneumoniae [4])
O=C(CC(NCCc1c[nH]c2ccccc12)C(=O)O)c1ccc(Br)cc1 (stereo not given)	1000 (≈ 2410 µM)	–	–	inactive	inactive	inactive	inactive	–	–
O=C(CC(NCCc1c[nH]c2ccccc12)C(=O)O)c1ccc(Cl)cc1 (stereo not given)	–	–	–	inactive	inactive	inactive	inactive	inactive	–
N[C@H](C[C@H](C(=O)O)c1ccc(NC(=O)Nc2ccccc2)cc1)C(=O)O	–	16 (≈ 44.8 µM)	1.37	–	–	–	–	–	100

Further lines, with some results ahead:

MIC (Streptococcus pneumoniae [1]) [µg/mL]	MIC (Streptococcus pneumoniae [2]) [µg/mL]	IC50 (Glutamate racemase) [µM]	Compound	Activity (Staphylococcus aureus)	Activity (Enterococcus faecalis)	Activity (Escherichia coli)	Activity (Enterococcus faecium)	Activity (Streptococcus pneumoniae [3])	Ratio (Streptococcus pneumoniae [4])
1000 (≈ 2850 µM)	–	–	Cc1ccc(C(=O)CC(NCCc2c[nH]c3ccccc23)C(=O)O)cc1 (stereo not given)	inactive	inactive	inactive	inactive	–	–
–	0.24 (≈ 0.83 µM)	1.73	N[C@H](C[C@H](C(=O)O)c1cccc(-c2ccco2)c1)C(=O)O	–	–	–	–	–	–
1000 (≈ 2820 µM)	–	–	O=C(CC(NCCc1c[nH]c2ccccc12)C(=O)O)c1ccc(F)cc1 (stereo not given)	inactive	inactive	inactive	inactive	–	–
